Data: PMC7722097 (ChemMedChem, 2020)
Entries after “also recorded” stand apart in the source; their conditions may differ.

Legend:
[1] = target: cIAP2-BIR3 (Homo sapiens, UniProt Q13489); assay: DELFIA displacement assay, cIAP2-BIR3; type: binding
[2] = target: cIAP1-BIR3 (Homo sapiens, UniProt Q13490); assay: DELFIA displacement assay, cIAP1-BIR3; type: binding
[3] = target: HA-BIR3 of XIAP-expressing HEK293T cells (Homo sapiens, UniProt P98170); assay: Immunoblot of HA-BIR3 XIAP-expressing HEK293T cells; type: cell-based; settings: 10 μM compound, 6 h, anti-HA antibody
HA-BIR3 of XIAP-expressing HEK293T cells, sequence (P98170 253-347 limits assumed): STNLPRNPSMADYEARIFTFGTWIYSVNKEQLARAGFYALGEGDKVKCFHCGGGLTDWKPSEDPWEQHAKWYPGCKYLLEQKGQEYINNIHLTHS

[4] = target: T1, BIR3 domain of XIAP (Homo sapiens, UniProt P98170); assay: DELFIA displacement assay, XIAP-BIR3; type: binding
T1 sequence (P98170 253-347): as the sequence (P98170 253-347 limits assumed) above

[5] = target: wt-BIR3 (Lys311) domain of XIAP (Homo sapiens, UniProt P98170); assay: Denaturation thermal shift, wt BIR3 of XIAP; settings: for Thermal shift data ATm XIAP-BIR3: Table 2
wt-BIR3 (Lys311) domain of XIAP, sequence (P98170 253-347): as the sequence (P98170 253-347 limits assumed) above

[6] = target: T1, BIR3 domain of XIAP; assay: Kinetic analysis using the DELFIA assay; type: binding

cIAP2-BIR3, sequence (Q13489 244-349): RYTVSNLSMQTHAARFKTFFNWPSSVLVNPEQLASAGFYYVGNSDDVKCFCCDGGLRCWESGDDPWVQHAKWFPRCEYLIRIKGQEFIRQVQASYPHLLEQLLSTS
cIAP1-BIR3, sequence (Q13490 258-363): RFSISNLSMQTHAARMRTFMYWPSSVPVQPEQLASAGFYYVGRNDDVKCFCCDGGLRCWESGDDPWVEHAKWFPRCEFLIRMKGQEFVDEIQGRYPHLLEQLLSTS

Row | Structure (SMILES) | IC50 [1] [nM] | IC50 [2] [nM] | Covalent adduct formation in cell (band shift) [3] | Stabilization of HA-BIR3 in cell (western blot band intensity) [3] | IC50 [4] [nM] | Selectivity XIAP vs cIAP1/2, in words ([4]; from DELFIA IC50 values of Table 2) | Thermal shift data ATm XIAP-BIR3 ([5]; pre-incubation 30min (top value) at room temperature) [°C] | Thermal shift data ATm XIAP-BIR3 ([5]; pre-incubation 2h (bottom value) at room temperature) [°C] | ΔTm, BIR3 domain of XIAP, as stated in text or legend ([5]; approximate values or bounds in running text, incubation 30 min or 2 h) [°C] | Ki [6] [nM]
1 | CN[C@@H](C)C(=O)N[C@@H](CNCc1ccc(S(=O)(=O)F)cc1)C(=O)N1CCC[C@H]1C(=O)N[C@@H]1CCc2c(F)cccc21 [compound 12, 4-((((S)-3-((S)-2-(((R)-4-fluoro-2,3-dihydro-1Hinden-1-yl)carbamoyl)pyrrolidin-1-yl)-2-((S)-2(methylamino)propanamido)-3oxopropyl)amino)methyl)benzene-1-sulfonyl fluoride] | 58.5 ± 0.1 | 22 ± 4 |  |  |  |  |  |  |  | 
2 | CN[C@@H](C)C(=O)N[C@@H](CNC(=O)c1ccc(S(=O)(=O)F)c(OC)c1)C(=O)N1CCC[C@H]1C(=O)N[C@@H]1CCc2c(F)cccc21 [compound 13, 4-(((S)-3-((S)-2-(((R)-4-fluoro-2,3-dihydro-1Hinden-1-yl)carbamoyl)pyrrolidin-1-yl)-2-((S)-2(methylamino)propanamido)-3-oxopropyl)carbamoyl)-2methoxybenzene-1-sulfonyl fluoride] | 492 ± 26 | 141 ± 15 | band shift | stabilized HA-BIR3; also recorded: most intense band | 15.6 ± 0.8 | more potent towards XIAP; also recorded: significantly more selective for XIAP compared to cIAP1/2 | 27.0 ± 0.2 | 27.2 ± 0.1 | > 20 | 85 ± 3
